Structures can show the parent of a compound that is named as a salt. Where two headings read alike, the source gives them in different places.

Here are results for 44 compounds from patent US8058243B2, “Method for treating a brain cancer with ifenprodil” (HSC Research and Development Limited Partnership, priority 2006, dated 2011).

This experiment concerns murine neural precursor cells (neurosphere cultures). As to the kind of experiment: HTS of LOPAC library against secondary neurosphere cultures, MTT proliferation assay at 3 μM, day 7 (z score, P value). The class given is cell-based, mouse.
The mark [1] stands for this setting: LOPAC primary screen, neurosphere MTT proliferation, 3 μM, day 7.
Setting [2] is: yes/no: significantly inhibited neurosphere proliferation in primary screen.
Setting [3] is: LOPAC library screen, 3 μM, MTT, neurosphere cultures.
The mark [4] stands for this setting: LOPAC screen, neurosphere MTT proliferation, 3 μM, day 7.
[5] abbreviates: LOPAC library screen, 3 μM, MTT, secondary neurosphere cultures, day 7.
The mark [6] stands for this setting: yes/no: significantly inhibited neurosphere proliferation (P<0.01) in the primary screen.
[7] abbreviates: yes/no: significantly inhibited neurosphere proliferation (P<0.01) in primary screen.
The mark [8] stands for this setting: primary LOPAC screen, 3 μM, MTT, neurosphere proliferation.
Setting [9] is: yes/no: significantly inhibited neurosphere proliferation in the primary screen.
Where [10] appears, read: LOPAC library screen at 3 μM, secondary neurosphere cultures, MTT.
[11] abbreviates: yes = significantly inhibited neurosphere proliferation (P<0.01) in the primary screen.

With `Cl.Nc1cc(Cl)c(N=C2NCCN2)c(Cl)c1` [p-Aminoclonidine hydrochloride], the “Z Score” value is listed as −0.04776. In addition, the Z score under setting [1] is listed as −0.048. Also, the Activity result under setting [2] was “no”.
On to `NC(CO)C(=O)NNCc1ccc(O)c(O)c1O` (stereo not shown) [Benserazide hydrochloride], for which the Activity result is recorded as “no”. For the same compound, the “Z Score” value under setting [3] was 0.007467. Also, under setting [4], the Z score was found to be 0.007.
On to `C=C[C@H]1C[N@@]2CC[C@H]1C[C@@H]2[C@@H](O)c1ccnc2ccc(OC)cc12` [Quinidine sulfate], for which the “Z Score” value under setting [5] was −1.93. The Z score under setting [1] was −1.930. Under setting [2], the Activity result is “no”.
Consider `CN1[C@@H]2CC[C@H]1C[C@@H](OC(c1ccccc1)c1ccccc1)C2` [Benztropine mesylate], for which, under setting [5], the “Z Score” value is −3.749. Under setting [1], this compound yielded a Z score of −3.749. The Activity entry under setting [6] is reported as “yes”.
For `N=C1Sc2ccccc2C2=NCCCN12` [PD 404,182], the “Z Score” value is 0.09055. In addition, the Z score under setting [1] came out at 0.091. For the same compound, under setting [2], the Activity entry is “no”.
Consider `N[C@H](C(=O)O)[C@H]1C[C@@H]1C(=O)O`, for which the “Z Score” value was found to be 1.233. The compound further yielded a Z score under setting [4] of 1.233. In addition, under setting [7], the Activity entry is given as “no”.
Regarding `CC(=O)SCC[N+](C)(C)C.[Cl-]` [Acetylthiocholine chloride], the Z score under setting [8] is given as 0.004. Also, under setting [9], the Activity entry is on record as “no”.
On to Albuterol hemisulfate, for which the “Z Score” value under setting [10] is −0.949. The same compound gave a Z score under setting [1] of −0.949. Under setting [2], the Activity result is listed as “no”.
As to `CNCCc1c[nH]c2ccc(O)cc12.O=C(O)C(=O)O`, the “Z Score” value was 0.656. Under setting [1], this compound registered a Z score of 0.656. Besides, under setting [11], the Activity entry is given as “no”.
Consider `CC/C(=C(\c1ccccc1)c1ccc(OCCN(C)C)cc1)c1ccccc1` [Tamoxifen citrate], for which the Activity result is recorded as “yes”. The “Z Score” value under setting [5] was −10.64. The same compound gave a Z score under setting [1] of −10.643.
Take `CN/C(=N/CCSCc1nc[nH]c1C)NC#N` [Cimetidine]: the “Z Score” value (LOPAC library screen at 3 μM, MTT, secondary neurosphere cultures, screened in singlets) came out at 1.665. Besides, the Z score under setting [4] was found to be 1.665. Under setting [7], the Activity result is on record as “no”.
With `COc1ccc(CCN(C)CCc2ccc(OC)c(OC)c2)cc1OC.Cl` [YS-035 hydrochloride], the “Z Score” value is 0.04311. This compound registered a Z score under setting [1] of 0.043. The Activity result under setting [6] was “no”.
Take `Cc1cc(N)c2ccccc2[n+]1CCCCCCCCCC[n+]1c(C)cc(N)c2ccccc21` [Dequalinium (29), Dequalinium, reference compound]: the “Z Score” value under setting [5] is on record as −9.54. Further, the Z score under setting [1] is −9.540. In addition, the Activity result under setting [6] is recorded as “yes”.
With `CC(C)Cn1c(=O)n(C)c(=O)c2[nH]cnc21` [3-Isobutyl-1-methylxanthine], for the setting “168 h, 3 µM”, the “Z Score” value is given as −0.774 and the Z score is given as −0.774. The Activity result under setting [7] is “no”.
Turning to `C=CC1=C(C)c2cc3[nH]c(cc4nc(cc5[nH]c(cc1n2)c(C)c5CCC(=O)O)C(CCC(=O)O)=C4C)c(C)c3C=C` [Protoporphyrin IX disodium], where the note is “168 h, 3 µM”, the “Z Score” value is on record as −3.441 and the Z score is −3.441. Besides, under setting [11], the Activity entry is given as “yes”.
Turning to `CNc1ccc2oc(C[C@H]3O[C@@]4(CC[C@H]3C)O[C@H]([C@H](C)C(=O)c3ccc[nH]3)[C@H](C)C[C@H]4C)nc2c1C(=O)O` [Calcimycin], the “Z Score” value is 2.172. This compound had a Z score under setting [4] of 2.172. In addition, under setting [7], the Activity entry is “no”.
`Cl.O=C(O)C1=CCCNC1` [Guvacine hydrochloride]: the “Z Score” value is recorded as −1.345. This compound also displayed a Z score under setting [1] of −1.345. Under setting [7], the Activity entry is reported as “no”.
With `Cn1c(=O)c2c(nc(C=Cc3cccc(Cl)c3)n2C)n(C)c1=O` [8-(3-Chlorostyryl)caffeine], where the note is “168 h, 3 µM”, the “Z Score” value was −1.214 and the Z score is −1.214. In addition, the Activity result under setting [7] is “no”.
As to `Cc1nnc2ccc(-c3cccc(C(F)(F)F)c3)nn12` [3-Methyl-6-(3-[trifluoromethyl]phenyl)-1,2,4-triazolo[4,3-b]pyridazine], the “Z Score” value was found to be 0.09095. In addition, the Z score under setting [1] was 0.091. Also, the Activity entry under setting [11] is “no”.
Regarding `CC(C)C(=O)Nc1ccc([N+](=O)[O-])c(C(F)(F)F)c1` [Flutamide], the “Z Score” value under setting [10] was −0.1133. Under setting [1], the Z score is reported as −0.113.
Regarding `CCNC(=O)N1CCN(CCCC(c2ccc(F)cc2)c2ccc(F)cc2)CC1` [Amperozide hydrochloride], for the setting “168 h, 3 µM”, the “Z Score” value was −0.4126 and the Z score is on record as −0.413. Besides, the Activity result under setting [11] is on record as “no”.
On to `C=CCc1ccccc1OCC(O)CNC(C)C` (stereo not shown) [Alprenolol hydrochloride], for which the “Z Score” value under setting [5] was −2.143. This compound returned a Z score under setting [8] of −2.143. The Activity result under setting [9] is recorded as “no”.
With `O=C(O)CCC(=O)N1CCC[C@H]1C(=O)O` [N-Succinyl-L-proline], the “Z Score” value under setting [3] is 0.7246. Further, under setting [1], the Z score came to 0.725. Moreover, the Activity entry under setting [2] is recorded as “no”.
`NC(=O)C(=O)[O-].[Na+]` [Sodium Oxamate]: where the note is “168 h, 3 µM”, the “Z Score” value is 0.7449 and the Z score came to 0.745. For the same compound, the Activity entry under setting [2] is “no”.
`CCN1C[C@]2(C)CC[C@H](O)[C@]34C1[C@@H](C[C@H]23)[C@@]1(O)C[C@H](OC)[C@H]2C[C@@H]4[C@@H]1[C@H]2O` [Karakoline]: the “Z Score” value is −1.625. Under setting [1], this compound had a Z score of −1.625. Also, the Activity result under setting [7] is given as “no”.
For `Cc1ccccc1CNc1ncnc2c1ncn2[C@@H]1O[C@H](CO)[C@@H](O)[C@H]1O` [Metrifudil], the “Z Score” value under setting [10] is listed as −0.2123. Moreover, the Z score under setting [1] is −0.212. Under setting [11], the Activity entry is given as “no”.
For `O=C(O)c1cccnc1Nc1cccc(C(F)(F)F)c1` [Niflumic acid], the “Z Score” value under setting [5] was −1.958. This compound also came in with a Z score under setting [1] of −1.958. The Activity entry under setting [11] is “no”.
In the case of `C[C@@H]1O[C@@H](O[C@H]2C[C@@H](O)[C@]3(CO)[C@H]4[C@H](O)C[C@]5(C)[C@@H](C6=CC(=O)OC6)CC[C@]5(O)[C@@H]4CC[C@]3(O)C2)[C@H](O)[C@H](O)[C@H]1O` [Ouabain], under setting [5], the “Z Score” value is −1.568. Further, the Z score under setting [1] was −1.568. Moreover, the Activity result under setting [2] was “no”.
Regarding `CCCOc1ccccc1-c1nc2nn[nH]c2c(=O)[nH]1` [Zaprinast], the “Z Score” value under setting [5] was −2.506. For the same compound, the Z score under setting [1] is reported as −2.506. Moreover, the Activity entry under setting [11] is reported as “yes”.
On to `CN1C[C@H](CNC(=O)OCc2ccccc2)C[C@@H]2c3cccc4c3c(cn4C)C[C@H]21` [Metergoline (39), Metergoline, reference compound], for which the “Z Score” value under setting [5] is −4.342. The same compound showed a Z score under setting [1] of −4.342. Moreover, the Activity entry under setting [6] was “yes”.
Turning to `CC(C)(C)c1ccc(S(=O)(=O)/C=C/C#N)cc1` [Bay 11-7085], the “Z Score” value is given as 2.18. Under setting [4], this compound gave a Z score of 2.180. Moreover, the Activity entry under setting [7] was “no”.
In the case of `CC(C)(C)c1onc(OCP(=O)(O)O)c1CC(N)C(=O)O` (stereo not shown) [ATPO], the “Z Score” value is reported as −1.68. The same compound displayed a Z score under setting [8] of −1.680. Moreover, under setting [9], the Activity result is listed as “no”.
In the case of `Clc1cnc(Oc2ccc(Oc3ncc(Cl)cc3Cl)cc2)c(Cl)c1` [TCPOBOP], the “Z Score” value under setting [5] is −2.008. This compound came in with a Z score under setting [1] of −2.008. In addition, under setting [11], the Activity entry is on record as “no”.
Turning to `C[C@H]1O[C@@H](n2cc(F)c(=O)[nH]c2=O)[C@H](O)[C@@H]1O` [5-fluoro-5′-deoxyuridine], the “Z Score” value under setting [3] amounted to 0.3787. This compound gave a Z score under setting [1] of 0.379. The Activity result under setting [7] is given as “no”.
Take `NCC(CP(=O)(O)O)c1ccc(Cl)cc1` (stereo not shown) [Phaclofen]: the “Z Score” value turned out to be 0.9701. Under setting [1], the Z score is listed as 0.970. For the same compound, under setting [2], the Activity result is “no”.
For the compound LY-310,762 hydrochloride, the “Z Score” value was 0.05111. Under setting [1], this compound gave a Z score of 0.051. Also, under setting [6], the Activity entry is given as “no”.
With `CN(C)CCN(Cc1cccs1)c1ccccn1` [Methapyrilene hydrochloride], the “Z Score” value under setting [3] is listed as 0.6276. Moreover, the Z score under setting [1] worked out at 0.628.
Turning to `Cl.Cl.Cl.NCCCCNCCCN` [Spermidine trihydrochloride], the “Z Score” value under setting [3] amounted to 1.259. This compound also came in with a Z score under setting [1] of 1.259. Further, the Activity result under setting [2] is listed as “no”.
Take `CCCN(CCC)CCc1c[nH]c2ccc(C(N)=O)cc12.O=C(O)/C=C\C(=O)O`: the “Z Score” value is on record as −1.73. The compound further gave a Z score under setting [4] of −1.730. Further, the Activity result under setting [7] was “no”.
Regarding `O=C(O)c1cc(O)cc(C(=O)O)n1` [Chelidamic acid], under “168 h, 3 µM”, the “Z Score” value stood at 0.7261 and the Z score is given as 0.726. In addition, the Activity entry under setting [7] was “no”.
On to `CN1CCN(C2=Nc3ccccc3Oc3ccc(Cl)cc32)CC1` [Loxapine succinate], for which the “Z Score” value was −0.7477. Also, the Z score under setting [1] is given as −0.748. Also, the Activity result under setting [7] is listed as “no”.
Consider `O=c1c2ccccc2[nH]c(=S)n1CCN1CCC(=C(c2ccc(F)cc2)c2ccc(F)cc2)CC1` [Diacylglycerol Kinase Inhibitor II], for which the “Z Score” value under setting [5] was −1.39. This compound also returned a Z score under setting [4] of −1.390. Besides, the Activity result under setting [7] is listed as “no”.
For the compound `CCCCCCCCCC(=O)NC(CN1CCOCC1)[C@H](O)c1ccccc1.Cl` (stereo partly shown), under setting [10], the “Z Score” value is recorded as −1.109.
For the compound `CC(C)(C(=O)O)c1ccc(C(O)CCCN2CCC(C(O)(c3ccccc3)c3ccccc3)CC2)cc1` (stereo not shown) [Fexofenadine hydrochloride], the Activity entry is recorded as “no”. Further, the “Z Score” value under setting [10] is on record as −0.7572. For the same compound, the Z score under setting [1] is given as −0.757.
